Measured values from PubChem BioAssay (NCI).
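Exposure lasted 48 hours, with cells grown in 96-well plates and compounds tested at five concentrations. Here, GI50 denotes the concentration required for 50% inhibition of growth. TGI: concentration producing complete growth inhibition.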

Assays:
Experiment in all cases: NCI-60 cell line screen, 48 h
786-0 renal = system: 786-0 renal
A498 renal = system: A498 renal
A549 NSCLC = system: A549 NSCLC
ACHN renal = system: ACHN renal
BT-549 breast = system: BT-549 breast
CAKI-1 renal = system: CAKI-1 renal
CCRF-CEM leukemia = system: CCRF-CEM leukemia
COLO 205 colon = system: COLO 205 colon
DU-145 prostate = system: DU-145 prostate
EKVX NSCLC = system: EKVX NSCLC
HCC-2998 colon = system: HCC-2998 colon
HCT-116 colon = system: HCT-116 colon
HCT-15 colon = system: HCT-15 colon
HOP-62 NSCLC = system: HOP-62 NSCLC
HOP-92 NSCLC = system: HOP-92 NSCLC
HS 578T breast = system: HS 578T breast
HT29 colon = system: HT29 colon
IGROV1 ovarian = system: IGROV1 ovarian
K-562 leukemia = system: K-562 leukemia
KM12 colon = system: KM12 colon
LOX IMVI melanoma = system: LOX IMVI melanoma
M14 melanoma = system: M14 melanoma
MCF7 breast = system: MCF7 breast
MDA-MB-231 breast = system: MDA-MB-231 breast
MDA-MB-435 = system: MDA-MB-435
MOLT-4 leukemia = system: MOLT-4 leukemia
NCI-H226 lung = system: NCI-H226 lung
NCI-H23 lung = system: NCI-H23 lung

Which results are given for `C=C1C(=O)O[C@@H]2C1CC(=O)C(C)CC/C=C(\C)CCC[C@H](C)[C@H]2OC(C)=O` (stereo not given in full)?
GI50 (786-0 renal): 17 µM; TGI (786-0 renal): 32.2 µM; GI50 (A498 renal): 20.7 µM; TGI (A498 renal): 35.4 µM; GI50 (A549 NSCLC): 19.6 µM; TGI (A549 NSCLC): 38.7 µM; GI50 (ACHN renal): 11.4 µM; TGI (ACHN renal): 24.1 µM; GI50 (BT-549 breast): 13 µM; TGI (BT-549 breast): 30.2 µM; GI50 (CAKI-1 renal): 11.9 µM; TGI (CAKI-1 renal): 24.4 µM; GI50 (CCRF-CEM leukemia): 2 µM; TGI (CCRF-CEM leukemia): 4.75 µM; GI50 (COLO 205 colon): 5.34 µM; TGI (COLO 205 colon): > 100 µM; GI50 (DU-145 prostate): 15 µM; TGI (DU-145 prostate): 31.7 µM; GI50 (EKVX NSCLC): 16.3 µM; TGI (EKVX NSCLC): 31.5 µM; GI50 (HCC-2998 colon): 15.6 µM; TGI (HCC-2998 colon): 29.9 µM; GI50 (HCT-116 colon): 1.62 µM; TGI (HCT-116 colon): 3.62 µM; GI50 (HCT-15 colon): 13.7 µM; TGI (HCT-15 colon): 30.4 µM; GI50 (HOP-62 NSCLC): 18.2 µM; TGI (HOP-62 NSCLC): 33.3 µM; GI50 (HOP-92 NSCLC): 1.64 µM; TGI (HOP-92 NSCLC): 9.12 µM; GI50 (HS 578T breast): 15.2 µM; TGI (HS 578T breast): 36 µM; GI50 (HT29 colon): 5.28 µM; TGI (HT29 colon): > 100 µM; GI50 (IGROV1 ovarian): 10.1 µM; TGI (IGROV1 ovarian): 26.3 µM; GI50 (K-562 leukemia): 3.52 µM; TGI (K-562 leukemia): 15.3 µM; GI50 (KM12 colon): 12.8 µM; TGI (KM12 colon): 29.1 µM; GI50 (LOX IMVI melanoma): 2.15 µM; TGI (LOX IMVI melanoma): 6.22 µM; GI50 (M14 melanoma): 4.24 µM; TGI (M14 melanoma): 16 µM; GI50 (MCF7 breast): 4.81 µM; TGI (MCF7 breast): 35.6 µM; GI50 (MDA-MB-231 breast): 15.5 µM; TGI (MDA-MB-231 breast): 33.5 µM; GI50 (MDA-MB-435): 14.7 µM; TGI (MDA-MB-435): 28 µM; GI50 (MOLT-4 leukemia): 10.9 µM; TGI (MOLT-4 leukemia): 35 µM; GI50 (NCI-H226 lung): 15.1 µM; TGI (NCI-H226 lung): 30.5 µM; GI50 (NCI-H23 lung): 13.9 µM
